How the values were obtained:
Format in all cases: cell-based, human
[1] = system: MCF-7 cells; test: Comet assay; conditions: MCF-7, 20 μM, 48 h
Method: The comet assay (Figure 10), however, documents different consequences of DNA binding. […] The picture (Figure 10C) is very similar to that of the solvent control (Figure 10A).
MCF-7 cells were seeded at a density of 1.0 × 10^6 cells into a 25 cm^2 flask, followed by 24 h of incubation in a humidified atmosphere (5% CO2/95% air) at 37 °C. […] Cells were incubated with the compounds for 48 h. The assay was performed according to the manufacturer’s protocol (Comet assay kit, Abcam, Cambridge, UK). Briefly, after lysis and application to the microscopy slides, electrophoresis was run in an alkaline buffer for 20 min at 2 V/cm. Subsequently, slides were washed with pure deionized water and EtOH/water [7/3 (v/v)], and stained with Vista Green DNA Dye. Visualization was carried out by real-time live confocal microscopy using an inverted microscope (Zeiss Observer Z1) in arrangement with a spinning disc confocal system (UltraVIEW VoX).

[2] = system: SKBr3 cells; test: MTT assay of metabolic activity, SKBr3; conditions: 72 h, MTT
Method: The GW7604-Alk-PtCl3 complexes (with exclusion of GW7604-Prop-PtCl3) were investigated for cytotoxic effects in SKBr3 (ER-negative, COX-2-positive, Figure 6), MCF-7 (ERα-positive, COX-negative, Figure 6), and noncancerous TSA-201 (human embryonal kidney) cells at concentrations of 10–30 μM using an established MTT (3-(4,5-dimethylthiazol-2-yl)-2,5-diphenyltetrazolium bromide) assay.[60],[69]
After incubation for 72 h, the amounts of surviving, metabolically active cells were quantified based on their ability to transform the water-soluble yellow dye MTT to a purple formazan, which can be analyzed by UV–vis spectroscopy.
The exponentially growing cells were seeded at a density of 1750 (MCF-7), 2000 (SKBr3), and 1250 (TSA-201) cells/well into clear flat-bottom 96-well plates in triplicate. Following 24 h of incubation at 37 °C in a humidified atmosphere (5% CO2/95% air), the compounds [freshly prepared stock solutions in DMF, diluted with DMEM to the desired concentration (final DMF concentration of 0.1% (v/v))] were added to reach the indicated concentrations. After another 72 h of incubation, the cellular metabolic activity was measured employing an MTT assay. By adding predissolved MTT reagent in PBS at a final concentration of 0.5 mg/mL, the metabolic activity can be determined via an enzymatic conversion to a purple formazan salt. After 3 h, the medium was aspirated, and 200 μL of DMSO was added to dissolve the formed formazan crystals. The absorbance was measured at 570 and 690 nm (turbidity assessment) using an EnSpire plate reader (PerkinElmer, Waltham, MA, USA). Solvent-treated cells without a compound served as the positive control. Metabolic activity was calculated by the following equation [drawing 1]

[3] = system: nuclei of MCF-7 cells; test: Nuclear uptake (platinum by HR-CS-AAS), MCF-7; conditions: MCF-7, 20 μM, 24 h; pmol complex/mg protein
Method: Fluorescence in the nuclei is not detectable. Therefore, the nuclei were analyzed for their platinum content using HR-CS-AAS.[25]
After thawing of the cell/nuclei pellets, they were resuspended in ultrapure water (Siemens LaboStar, Günzburg, Germany; 300 μL) and lyzed with a sonotrode (Bandelin Sonoplus, Berlin, Germany; parameters 20 s, 9 cycles, 80% power). Graphite furnace (GF) AAS was used to quantify the lysates concerning their content of platinum (λ = 265.9450 nm). For this purpose, a contrAA 700 High-Resolution-Continous Source AAS (Analytik Jena, Jena, Germany) was employed, while atomization took place by electrothermal heating of graphite tubes with an inserted platform (Analytik Jena, Jena, Germany). […] The spectrometer was monitored with the ASpect CS software, version 2.3.1.0 (Analytik Jena, Jena, Germany). For all runs, the mean integrated absorbance was determined after three injections of each standard or sample. […] Each cell/nuclei lysate was quantified concerning its protein content following the method of Bradford[71] in order to express the uptake as the amount of compound (pmol) in the lysate relative to its protein mass (mg). […] All standards and lysates were measured in duplicate. After incubating for 5 min at rt, the absorbance (λ = 595 nm) was read on a microplate reader (Tecan Safire 2, Männedorf, Switzerland). […]

CCC(=C(c1ccc(O)cc1)c1ccc(C=CC(=O)OCCC[CH]2[CH2][Pt-]2([Cl])([Cl])[Cl])cc1)c1ccccc1.[K+] (mixture of isomers) [GW7604-Pent-PtCl3, Potassium trichlorido[η^2-(pent-4-en-1-yl (E)-3-(4-((E/Z)-1-(4-hydroxyphenyl)-2-phenylbut-1-en-1-yl)phenyl)acrylate)]platinate(II)]
comet tails (DNA cross-links) [1]: did not show this effect
IC50 [2]: > 30 µM
platinum content in the nuclei [3]: 145 pmol/mg

— paper PMC10983001, “Development of Cytotoxic GW7604-Zeise’s Salt Conjugates as Multitarget Compounds with Selectivity for Estrogen Receptor- Positive Tumor Cells” (Journal of Medicinal Chemistry, 2024)
